# Read-outs that look alike come from different tables or passages of the source.
# Experiments:
# [1] = system: Leukemia Cell Line MOLT-4; assay type: cell-based; conditions: Homo sapiens
# HDAC6 = target: T1, HDAC6 (Homo sapiens, UniProt Q9UBN7); experiment: HDAC Fluorescent Activity Assay; assay type: biochemical; conditions: for inhibition at 1 µM: symbols ** / *, read-out: HDAC6 Inhibition Activity (% Inhibition class)
# T1 sequence (Q9UBN7 1-1215): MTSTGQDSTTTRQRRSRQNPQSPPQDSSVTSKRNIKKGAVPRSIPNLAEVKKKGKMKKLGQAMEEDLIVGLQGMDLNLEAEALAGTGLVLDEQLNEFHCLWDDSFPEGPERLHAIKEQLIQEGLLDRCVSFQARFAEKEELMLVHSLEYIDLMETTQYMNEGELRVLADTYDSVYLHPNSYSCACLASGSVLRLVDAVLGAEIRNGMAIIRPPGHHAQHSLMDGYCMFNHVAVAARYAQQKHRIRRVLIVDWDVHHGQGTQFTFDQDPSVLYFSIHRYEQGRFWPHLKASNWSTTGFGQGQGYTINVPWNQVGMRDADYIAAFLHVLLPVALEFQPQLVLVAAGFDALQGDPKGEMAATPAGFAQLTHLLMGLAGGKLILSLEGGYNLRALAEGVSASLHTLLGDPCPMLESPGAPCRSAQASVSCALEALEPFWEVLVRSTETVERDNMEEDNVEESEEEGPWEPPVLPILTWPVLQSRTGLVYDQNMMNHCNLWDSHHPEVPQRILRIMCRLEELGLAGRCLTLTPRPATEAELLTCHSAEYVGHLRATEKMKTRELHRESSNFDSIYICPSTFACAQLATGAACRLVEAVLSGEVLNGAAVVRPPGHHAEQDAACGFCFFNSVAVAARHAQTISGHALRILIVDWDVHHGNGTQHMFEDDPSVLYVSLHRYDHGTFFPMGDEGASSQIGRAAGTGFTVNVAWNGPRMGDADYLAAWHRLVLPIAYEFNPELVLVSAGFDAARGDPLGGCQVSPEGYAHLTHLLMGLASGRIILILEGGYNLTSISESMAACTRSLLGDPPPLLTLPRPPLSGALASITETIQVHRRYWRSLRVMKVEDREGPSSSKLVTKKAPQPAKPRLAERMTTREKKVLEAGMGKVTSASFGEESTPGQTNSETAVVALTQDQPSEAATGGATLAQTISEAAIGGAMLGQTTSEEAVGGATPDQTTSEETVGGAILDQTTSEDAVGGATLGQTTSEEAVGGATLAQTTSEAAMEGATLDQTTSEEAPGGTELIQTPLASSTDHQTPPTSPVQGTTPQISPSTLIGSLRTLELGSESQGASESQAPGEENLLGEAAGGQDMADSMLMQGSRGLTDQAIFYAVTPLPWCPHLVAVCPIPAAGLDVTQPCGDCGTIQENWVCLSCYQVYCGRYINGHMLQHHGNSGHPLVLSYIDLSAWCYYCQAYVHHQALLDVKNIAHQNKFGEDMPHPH
# Description: This protocol is to determine the IC50s or percentage of inhibition values of the test compound against HDACs.
# The HDAC Fluorescent Activity Assay is based on the unique Fluorogenic Substrate and Developer combination. […] First, the Fluorogenic Substrate, which comprises an acetylated lysine side chain, is incubated with a purified HDAC enzyme. Deacetylation of the substrate sensitizes the substrate so that, in the second step, treatment with the Developer produces a fluorophore.
# Testing compounds were dissolved in 100% DMSO to specific concentration. […]
# 1. Deliver 2× enzyme in wells of reaction plate except No Enzyme control wells. Add buffer in No En wells.
# 2. Deliver compounds in 100% DMSO into the enzyme mixture by Acoustic technology (Echo550; nanoliter range). Spin down and pre-incubation.
# 3. Deliver 2× Substrate Mixture (Fluorogenic HDAC Substrate and co-factor if applicable) in all reaction wells to initiate the reaction. Spin and shake.
# 4. Incubate for 1-2 hr at 30° C. with seal.
# 5. Add Developer with Trichostatin A (or TMP269) to stop the reaction and to generate fluorescent color.
# 6. Fluorescence was read (excitatory, 360; emission, 460) using the EnVision Multilabel
# 7. Take endpoint reading for analysis after the development reaches plateau.
# The percentages of enzyme activity (relative to DMSO controls) and IC50 values were calculated using the GraphPad Prism 4 program based on a sigmoidal dose-response equation.
# [2] = system: Breast Cancer Cell Line MDA-MB-468; experiment: cells; conditions: Homo sapiens, MDA-MB-468, read-out: inhibition of proliferation
# Leukemia Cell Line SR = experiment: cells; assay type: cell-based; conditions: Homo sapiens, read-out: inhibition of proliferation
# PI3Kγ = PI3Kγ (Homo sapiens, UniProt P48736); experiment: PI3Kγ kinase assay (HTRF); assay type: biochemical
# Description: (§1) The PIP3 product is detected by displacement of biotin-PIP3 from an energy transfer complex consisting of Europium labeled anti-GST monoclonal antibody, a GST-tagged pleckstrin homology (PH) domain, biotinylated PIP3 and Streptavidin-Allophycocyanin (APC). […] The PIP3 product formed by PI 3-Kinase(h) activity displaces biotin-PIP3 from the complex resulting in a loss of energy transfer, and thus, a decrease in signal.
# (§2) First, the kinase reaction with PIP2 substrate is carried out in the presence of ATP, and the reaction is quenched with stop Solution, and then, finally detect by adding Detection Mixture followed by incubation.
# (§3) HEPES 50 mM (pH7.0), NaN3 0.02%, BSA 0.01%, Orthovanadate 0.1 mM, 1% DMSO.
# (§4) Detection buffer: HEPES 10 mM (pH7.0), BSA 0.02%, KF 0.16 M, EDTA 4 mM.
# (§5) 10 μM PIP2 substrate (PI(4,5)P2)
# (§6) 10 μM ATP under standard conditions
# (§7) 1. Prepare substrate in freshly prepared Reaction Buffer.
# (§8) 2. Deliver kinase into the substrate solution and gently mix.
# (§9) 3. Deliver compounds in 100% DMSO into the kinase reaction mixture by Acoustic technology (Echo550; nanoliter range), incubate for 10 min at room temperature.
# (§10) 4. Deliver ATP into the reaction mixture to initiate the reaction.
# (§11) 5. Incubate for 30 min at 30° C.
# (§12) 6. Quench the reaction with Stop Solution.
# (§13) 7. Add Detection Mixture, and incubate for overnight.
# (§14) The emission ratio is converted into μM PIP3 production based on PIP3 standard curves.
# (§15) The nonlinear regression to obtain the standard curve and IC50 values are performed using Graphpad Prism software.
# PI3Kδ = PI3Kδ (Homo sapiens, UniProt O00329); experiment: PI3Kδ kinase assay (HTRF); assay type: biochemical; conditions: for inhibition at 1 µM: symbols ** / *, read-out: PI3Kδ Inhibition Activity (% Inhibition class)
# Description: as §1, §2, §3, §4, §5, §6, §7, §8, §9, §10, §11, §12, §13, §14, §15
# PI3Kβ = PI3Kβ (Homo sapiens, UniProt P42338); experiment: PI3Kβ kinase assay (HTRF); assay type: biochemical
# Description: as §1, §2, §3, §4, §5, §6, §7, §8, §9, §10, §11, §12, §13, §14, §15
# PI3Kα = PI3Kα (Homo sapiens, UniProt P42336); experiment: PI3Kα kinase assay (HTRF); assay type: biochemical
# Description: as §1, §2, §3, §4, §5, §6, §7, §8, §9, §10, §11, §12, §13, §14, §15
# [3] = system: Leukemia Cell Line RPMI-8226; assay type: cell-based; conditions: Homo sapiens
# [4] = system: Breast Cancer Cell Line HS 578T; assay type: cell-based; conditions: Homo sapiens, read-out: inhibition of proliferation
# [5] = system: Leukemia Cell Line HL-60(TB); assay type: cell-based; conditions: Homo sapiens
# [6] = system: Leukemia Cell Line CCRF-CEM; experiment: cells; assay type: cell-based; conditions: Homo sapiens, read-out: inhibition of proliferation
# Ovarian Cell Line IGROV1 = assay type: cell-based; conditions: Homo sapiens
# [7] = system: Melanoma Cell Line UACC-62; experiment: cells; assay type: cell-based; conditions: Homo sapiens
# [8] = system: Breast Cancer Cell Line BT-549; experiment: cells; assay type: cell-based; conditions: Homo sapiens, BT-549, read-out: inhibition of proliferation
# [9] = HS 578T, single dose, 10 uM compound concentration
# PI3Kα, sequence (P42336 whole entry): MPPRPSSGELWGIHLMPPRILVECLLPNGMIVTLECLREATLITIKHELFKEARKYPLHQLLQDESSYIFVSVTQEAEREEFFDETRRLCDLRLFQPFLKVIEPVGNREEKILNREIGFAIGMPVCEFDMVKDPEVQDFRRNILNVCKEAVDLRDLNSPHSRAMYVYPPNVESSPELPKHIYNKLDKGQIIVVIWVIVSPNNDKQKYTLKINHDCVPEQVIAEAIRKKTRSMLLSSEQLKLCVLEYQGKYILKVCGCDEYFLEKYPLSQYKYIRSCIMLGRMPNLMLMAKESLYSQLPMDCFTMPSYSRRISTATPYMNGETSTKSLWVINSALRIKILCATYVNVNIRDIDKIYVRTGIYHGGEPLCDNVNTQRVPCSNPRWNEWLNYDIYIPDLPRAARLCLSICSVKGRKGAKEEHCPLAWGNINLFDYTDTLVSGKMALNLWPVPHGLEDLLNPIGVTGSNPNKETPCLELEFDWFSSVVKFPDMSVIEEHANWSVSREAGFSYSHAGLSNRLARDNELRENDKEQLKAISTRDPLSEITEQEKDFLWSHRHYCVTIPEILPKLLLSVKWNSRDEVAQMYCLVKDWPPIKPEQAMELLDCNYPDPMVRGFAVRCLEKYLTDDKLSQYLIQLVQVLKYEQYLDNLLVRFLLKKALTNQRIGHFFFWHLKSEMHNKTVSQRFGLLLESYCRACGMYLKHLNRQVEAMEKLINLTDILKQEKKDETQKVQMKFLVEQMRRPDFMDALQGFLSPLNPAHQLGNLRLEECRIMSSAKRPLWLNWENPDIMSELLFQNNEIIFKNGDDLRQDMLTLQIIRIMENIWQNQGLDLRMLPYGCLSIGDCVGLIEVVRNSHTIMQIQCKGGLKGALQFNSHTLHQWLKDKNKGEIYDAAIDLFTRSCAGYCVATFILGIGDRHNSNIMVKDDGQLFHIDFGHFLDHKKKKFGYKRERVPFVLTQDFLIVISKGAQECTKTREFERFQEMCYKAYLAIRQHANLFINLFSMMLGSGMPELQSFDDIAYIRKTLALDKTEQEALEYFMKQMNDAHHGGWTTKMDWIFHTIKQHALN
# PI3Kα, sequence (P27986 whole entry partner): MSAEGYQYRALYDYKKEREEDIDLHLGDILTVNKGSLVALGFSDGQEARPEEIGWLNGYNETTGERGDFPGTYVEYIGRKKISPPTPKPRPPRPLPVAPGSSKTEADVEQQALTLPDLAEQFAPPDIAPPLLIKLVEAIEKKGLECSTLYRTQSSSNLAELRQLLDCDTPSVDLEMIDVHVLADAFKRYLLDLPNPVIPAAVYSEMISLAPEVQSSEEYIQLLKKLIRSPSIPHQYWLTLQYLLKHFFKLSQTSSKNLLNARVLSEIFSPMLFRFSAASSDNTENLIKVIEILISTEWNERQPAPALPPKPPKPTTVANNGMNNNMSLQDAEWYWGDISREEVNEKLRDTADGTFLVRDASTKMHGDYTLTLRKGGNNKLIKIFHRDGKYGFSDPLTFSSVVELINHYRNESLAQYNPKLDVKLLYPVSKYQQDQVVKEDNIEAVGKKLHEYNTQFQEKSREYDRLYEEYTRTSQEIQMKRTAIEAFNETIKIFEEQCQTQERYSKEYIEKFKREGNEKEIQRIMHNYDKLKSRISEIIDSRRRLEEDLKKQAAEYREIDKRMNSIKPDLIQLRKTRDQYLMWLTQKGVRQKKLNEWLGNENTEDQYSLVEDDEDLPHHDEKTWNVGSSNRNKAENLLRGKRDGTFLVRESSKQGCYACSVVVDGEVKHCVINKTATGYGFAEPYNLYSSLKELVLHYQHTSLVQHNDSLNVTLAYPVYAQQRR
# PI3Kδ, sequence (O00329 whole entry): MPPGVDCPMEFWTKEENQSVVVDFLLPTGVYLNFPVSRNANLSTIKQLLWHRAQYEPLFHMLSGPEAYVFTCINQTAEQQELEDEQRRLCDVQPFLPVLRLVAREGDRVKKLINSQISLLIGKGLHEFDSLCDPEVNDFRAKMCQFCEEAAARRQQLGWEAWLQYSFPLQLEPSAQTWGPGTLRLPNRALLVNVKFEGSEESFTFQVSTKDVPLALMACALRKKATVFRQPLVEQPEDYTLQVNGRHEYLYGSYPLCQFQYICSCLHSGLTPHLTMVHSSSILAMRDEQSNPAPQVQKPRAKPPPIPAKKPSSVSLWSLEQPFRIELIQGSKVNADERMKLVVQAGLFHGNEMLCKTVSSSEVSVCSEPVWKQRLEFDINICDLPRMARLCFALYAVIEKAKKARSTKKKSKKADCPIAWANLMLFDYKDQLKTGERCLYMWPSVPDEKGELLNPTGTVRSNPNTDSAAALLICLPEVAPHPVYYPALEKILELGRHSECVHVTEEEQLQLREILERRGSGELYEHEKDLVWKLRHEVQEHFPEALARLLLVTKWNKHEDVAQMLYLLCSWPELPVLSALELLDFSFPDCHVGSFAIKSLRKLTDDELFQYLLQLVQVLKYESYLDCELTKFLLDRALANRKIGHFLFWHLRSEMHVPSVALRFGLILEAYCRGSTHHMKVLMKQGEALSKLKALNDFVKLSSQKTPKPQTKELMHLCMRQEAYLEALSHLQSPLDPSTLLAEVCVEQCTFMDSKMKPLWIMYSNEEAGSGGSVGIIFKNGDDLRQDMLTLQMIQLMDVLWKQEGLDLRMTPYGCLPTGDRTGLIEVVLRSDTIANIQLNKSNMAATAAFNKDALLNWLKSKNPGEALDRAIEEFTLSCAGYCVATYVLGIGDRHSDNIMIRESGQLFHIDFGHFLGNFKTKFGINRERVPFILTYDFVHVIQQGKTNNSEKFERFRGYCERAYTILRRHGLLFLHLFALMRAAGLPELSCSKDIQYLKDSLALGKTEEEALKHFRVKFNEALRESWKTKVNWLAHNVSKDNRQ
# PI3Kδ, sequence (P27986 whole entry partner): as the sequence (P27986 whole entry partner) above
# PI3Kβ, sequence (P42338 whole entry): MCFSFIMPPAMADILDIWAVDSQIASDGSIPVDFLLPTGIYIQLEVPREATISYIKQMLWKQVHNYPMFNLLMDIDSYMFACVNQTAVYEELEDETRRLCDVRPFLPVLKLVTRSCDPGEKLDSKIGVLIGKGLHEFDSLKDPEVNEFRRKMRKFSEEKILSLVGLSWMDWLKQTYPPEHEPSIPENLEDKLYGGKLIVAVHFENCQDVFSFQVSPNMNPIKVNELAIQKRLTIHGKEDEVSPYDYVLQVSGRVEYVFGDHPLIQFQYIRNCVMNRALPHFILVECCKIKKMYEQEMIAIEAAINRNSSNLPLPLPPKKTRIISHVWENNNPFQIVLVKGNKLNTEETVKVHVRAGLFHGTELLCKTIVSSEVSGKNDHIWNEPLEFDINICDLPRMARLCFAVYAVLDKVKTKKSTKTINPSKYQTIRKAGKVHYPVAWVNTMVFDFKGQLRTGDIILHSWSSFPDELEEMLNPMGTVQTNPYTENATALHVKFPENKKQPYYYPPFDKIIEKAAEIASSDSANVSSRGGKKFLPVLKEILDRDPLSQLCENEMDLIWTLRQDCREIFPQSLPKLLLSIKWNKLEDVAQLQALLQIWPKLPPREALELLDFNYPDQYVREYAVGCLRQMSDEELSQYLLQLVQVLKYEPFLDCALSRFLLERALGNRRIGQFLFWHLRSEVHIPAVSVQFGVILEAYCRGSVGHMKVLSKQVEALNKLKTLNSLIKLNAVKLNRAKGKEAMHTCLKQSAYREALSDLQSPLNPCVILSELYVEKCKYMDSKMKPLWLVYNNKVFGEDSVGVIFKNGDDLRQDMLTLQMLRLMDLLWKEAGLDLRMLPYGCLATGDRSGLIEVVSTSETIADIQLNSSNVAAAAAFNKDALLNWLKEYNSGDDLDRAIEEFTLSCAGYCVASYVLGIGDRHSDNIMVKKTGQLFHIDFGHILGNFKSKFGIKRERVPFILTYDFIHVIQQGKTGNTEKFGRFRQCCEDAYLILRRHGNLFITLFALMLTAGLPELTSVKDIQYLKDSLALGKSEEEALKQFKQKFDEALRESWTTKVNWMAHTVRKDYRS
# PI3Kβ, sequence (P27986 whole entry partner): as the sequence (P27986 whole entry partner) above
# PI3Kγ, sequence (P48736 whole entry): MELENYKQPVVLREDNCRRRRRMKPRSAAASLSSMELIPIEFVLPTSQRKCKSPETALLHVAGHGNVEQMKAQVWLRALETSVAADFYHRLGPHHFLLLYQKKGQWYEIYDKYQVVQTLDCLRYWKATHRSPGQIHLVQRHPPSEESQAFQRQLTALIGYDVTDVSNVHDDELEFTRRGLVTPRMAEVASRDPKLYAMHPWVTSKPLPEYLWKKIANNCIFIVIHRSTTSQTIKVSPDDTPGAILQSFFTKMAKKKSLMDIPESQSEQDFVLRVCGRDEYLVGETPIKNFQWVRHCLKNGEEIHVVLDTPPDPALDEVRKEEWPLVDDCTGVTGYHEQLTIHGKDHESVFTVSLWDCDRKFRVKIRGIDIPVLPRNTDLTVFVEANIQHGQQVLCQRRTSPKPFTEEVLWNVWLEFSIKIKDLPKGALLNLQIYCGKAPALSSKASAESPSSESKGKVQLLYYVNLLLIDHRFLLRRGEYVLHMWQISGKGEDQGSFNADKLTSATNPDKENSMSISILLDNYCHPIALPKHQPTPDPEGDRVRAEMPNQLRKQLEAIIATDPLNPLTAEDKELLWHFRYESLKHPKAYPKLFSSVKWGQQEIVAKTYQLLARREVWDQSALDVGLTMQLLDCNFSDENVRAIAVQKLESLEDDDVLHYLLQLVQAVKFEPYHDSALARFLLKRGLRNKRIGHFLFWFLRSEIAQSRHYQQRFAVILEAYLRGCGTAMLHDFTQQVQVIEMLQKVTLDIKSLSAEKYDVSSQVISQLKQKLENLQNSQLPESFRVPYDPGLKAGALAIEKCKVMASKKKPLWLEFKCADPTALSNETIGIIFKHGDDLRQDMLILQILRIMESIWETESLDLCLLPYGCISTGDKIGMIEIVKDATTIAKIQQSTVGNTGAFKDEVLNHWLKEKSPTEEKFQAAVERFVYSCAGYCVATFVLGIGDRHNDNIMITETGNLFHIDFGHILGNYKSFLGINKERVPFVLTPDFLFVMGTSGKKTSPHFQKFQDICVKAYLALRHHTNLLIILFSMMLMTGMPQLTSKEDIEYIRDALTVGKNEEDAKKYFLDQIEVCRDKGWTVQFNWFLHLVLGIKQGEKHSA
Structure (SMILES),inhibition at 1 µM (HDAC6),inhibition at 1 µM (PI3Kγ),inhibition at 1 µM (PI3Kδ),inhibition at 1 µM (PI3Kβ),inhibition at 1 µM (PI3Kα),inhibition at 10 µM [2],further results
CC[C@H](Nc1ncnc2[nH]cnc12)c1nc2cccc(CCCCNC(=O)NO)c2c(=O)n1-c1ccccc1 [Compound XXIV],–,91%,–,< 85%,< 85%,25 to 50%,"inhibition at 10 µM ([5]; HL-60, read-out: inhibition of proliferation): > 50%; IC50 (HDAC6; symbols ++ / +, read-out: HDAC6 Inhibition Activity (IC50 class)): > 100 nM; inhibition at 10 µM (Leukemia Cell Line SR): 25 to 50%; inhibition at 10 µM [6]: 25 to 50%; inhibition at 10 µM (Ovarian Cell Line IGROV1; IGROV-1, read-out: inhibition of proliferation): > 50%; inhibition at 10 µM ([7]; UACC-62, read-out: inhibition of proliferation): 25 to 50%; IC50 (PI3Kδ; symbols ++ / +, read-out: PI3Kδ Inhibition Activity (IC50 class)): < 100 nM; inhibition at 10 µM [8]: 25 to 50%; inhibition at 10 µM ([4]; Hs-578T): 25 to 50%"
"CC[C@H](Nc1ncnc2[nH]cnc12)c1nc2cccc(CCCCC(=O)NO)c2c(=O)n1-c1ccccc1 [XII, (S)-5-(2-(1-((9H-purin-6-yl)amino)propyl)-4-oxo-3-phenyl-3,4-dihydroquinazolin-5-yl)-N-hydroxypentanamide]",–,–,–,–,–,25 to 50%,"inhibition at 10 µM ([1]; MOLT-4, read-out: inhibition of proliferation): 25 to 50%; inhibition at 10 µM (Leukemia Cell Line SR): > 50%; inhibition at 10 µM [6]: 25 to 50%; inhibition at 10 µM ([3]; RPMI-8226, read-out: inhibition of proliferation): > 50%; inhibition at 10 µM ([4]; Hs-578T): 25 to 50%"
"CC[C@H](Nc1ncnc2[nH]cnc12)c1nc(N2CCN(c3nc(C(=O)NO)co3)CC2)c2ccccc2n1 [XXXIII, (S)-2-(4-(2-(1-((9H-purin-6-yl)amino)propyl)quinazolin-4-yl)piperazin-1-yl)-N-hydroxyoxazole-4-carboxamide]",> 90%,< 85%,< 90%,< 85%,< 85%,–,–
"CC[C@H](Nc1ncnc2[nH]cnc12)c1nc(-c2ccc(C(=O)NO)cc2)c2ccccc2n1 [XXXIV, (S)-4-(2-(1-((9H-purin-6-yl)amino)propyl)quinazolin-4-yl)-N-hydroxybenzamide]",> 90%,< 85%,< 90%,< 85%,< 85%,–,–

# More lines, main results first:
inhibition at 1 µM (HDAC6),inhibition at 1 µM (PI3Kγ),inhibition at 1 µM (PI3Kδ),inhibition at 1 µM (PI3Kβ),inhibition at 1 µM (PI3Kα),Structure (SMILES),inhibition at 10 µM [2],further results
> 90%,< 85%,> 90%,< 85%,< 85%,"CC[C@H](Nc1ncnc2[nH]cnc12)c1nc2cccc(CC(=O)c3ccc(C(=O)NO)cc3)c2c(=O)n1-c1ccccc1 [Compound I, (S)-4-(2-(2-(1-((9H-purin-6-yl)amino)propyl)-4-oxo-3-phenyl-3,4-dihydroquinazolin-5-yl)acetyl)-N-hydroxybenzamide]",25 to 50%,"inhibition at 10 µM ([1]; MOLT-4, single dose, 10 uM compound concentration, read-out: inhibition of proliferation): 25 to 50%; inhibition at 10 µM (Leukemia Cell Line SR; SR, single dose, 10 uM compound concentration): 25 to 50%; inhibition at 10 µM ([3]; RPMI-8226, single dose, 10 uM compound concentration, read-out: inhibition of proliferation): > 50%; inhibition at 10 µM [4, 9]: 25 to 50%"
< 90%,–,> 90%,–,–,"CC[C@H](Nc1nc(N)nc(C)c1C#N)c1nc2cccc(N3CCC(CC(=O)NO)CC3)c2c(=O)n1-c1ccccc1 [XLIX, (S)-2-(1-(2-(1-((2-amino-5-cyano-6-methylpyrimidin-4-yl)amino)propyl)-4-oxo-3-phenyl-3,4-dihydroquinazolin-5-yl)piperidin-4-yl)-N-hydroxyacetamide]",25 to 50%,"inhibition at 10 µM ([5]; HL-60(TB), single dose, 10 uM compound concentration, read-out: inhibition of proliferation): 25 to 50%; inhibition at 10 µM ([6]; single dose, 10 uM compound concentration): 25 to 50%; inhibition at 10 µM (Ovarian Cell Line IGROV1; IGROV-1, IGROV1, single dose, 10 uM compound concentration, read-out: inhibition of proliferation): 25 to 50%; inhibition at 10 µM ([7]; UACC-62, single dose, 10 uM compound concentration, read-out: inhibition of proliferation): 25 to 50%; inhibition at 10 µM [4, 9]: 25 to 50%"
< 90%,< 85%,> 90%,< 85%,< 85%,"CC[C@H](Nc1ncnc2[nH]cnc12)c1nc2cccc(CNC(=O)c3cccc(B(O)O)c3)c2c(=O)n1-c1ccccc1 [XXV, (S)-(3-(((2-(1-((9H-purin-6-yl)amino)propyl)-4-oxo-3-phenyl-3,4-dihydroquinazolin-5-yl)methyl)carbamoyl)phenyl)boronic acid]",–,–
< 90%,< 85%,< 90%,< 85%,< 85%,"CC[C@H](Nc1ncnc2[nH]cnc12)c1nc(N2CCN(c3nc(C(=O)NO)cs3)CC2)c2ccccc2n1 [XXXII, (S)-2-(4-(2-(1-((9H-purin-6-yl)amino)propyl)quinazolin-4-yl)piperazin-1-yl)-N-hydroxythiazole-4-carboxamide]",–,–
